From patent publication US20220233661A1, “METHOD OF DETERMINING ELIGIBILITY OF CANCER PATIENT FOR PEPTIDE VACCINE THERAPY” (priority 2019, published 2022)

Key:
[1] = system: anti-peptide IgG in plasma; test: Test Example 4: peptide-specific IgG titer pre and post vaccination, bead-based multiplexed Luminex assay; type: in vivo, human; settings: for Pre-vaccination IgG Negative (number of patients) / Pre-vaccination IgG Positive (number of patients): cut off 10 FIU; for Post vaccination IgG: number of (positive) patients among vaccinated: positive IgG response; for Pre-vaccination IgG Negative patients: number of 2,588 patients below 10 FIU; for Pre-vaccination IgG Positive patients: number of 2,588 patients with ≥10 FIU; for Post vaccination IgG: (positive) patients: number of vaccinated patients with positive IgG response; for Correlation between immune responses and OS: Negative (mOS): patients with negative post-vaccination IgG response to the peptide; for Correlation between immune responses and OS: Positive (mOS): patients with positive post-vaccination IgG response to the peptide
Method: As described previously, IgG titer specific to the antigen peptides in plasma was measured by bead-based multiplexed Luminex assay (Luminex, Austin, Tex.) before and after vaccination, i.e., at the end of each cycle or at the end of the clinical trial (Non-Patent Literature 4). In brief, 30 mL of peripheral blood was obtained before and after vaccination. Plasma was incubated with 100 μL of peptide-coupled color-coded beads for 2 hours at 25° C. on a plate shaker. After the incubation, the resultant mixture was washed with a vacuum manifold apparatus and incubated with 100 μL of biotinylated goat anti-human IgG (gamma chain-specific; Vector Laboratories, Burlingame, Calif.) for 1 hour at 25° C. on a plate shaker. The plate was then washed, followed by addition of 100 μL of streptavidin-PE (Life Technologies) to each well, and incubation for 30 minutes at 25° C. on a plate shaker. The resultant beads were washed 4 times, followed by addition of 100 μL of Tween-PBS to each well, and detection of fluorescence intensity units (FIU) on the beads using the Luminex system. The cutoff values of anti-peptide IgG were set to 10 FIU in 100-fold diluted samples.
Pre-vaccination peptide-specific IgG titers to 31 peptides were measured using a Luminex system. As a detectable IgG level, 10 FIU was employed as the cut off level, as reported previously (Noguchi M, et al., Cancer Immunol Immunother. 2013 May; 62(5): 919-29; Sasada T, et al., Current Medicinal Chemistry. 21: 2332-2345, 2014; Kibe S, et al., Cancer Immunology Research 2014; 2(12): 1154-62).
Post-vaccination lgG titers were measured at the ends of the first cycle and the second cycle.

cancer patients = test: Test Example 4: correlation between vaccination with individual peptides (or peptide sets) and OS, Cox proportional hazards regression; type: in vivo, human; settings: for HR: Cox proportional hazards regression, OS; for Correlation between immune responses and OS: Negative (mOS) / Correlation between immune responses and OS: Positive (mOS): Table 20, <64% neutrophil and ≥26% lymphocyte; for Correlation between immune responses and OS: Negative (mOS): vaccinated patients with negative IgG response; for Correlation between immune responses and OS: Positive (mOS): vaccinated patients with positive IgG response
Method: The Student's t-test and the chi-square test were used to compare quantitative and categorical variables, respectively. OS was calculated as the time in months from the date of clinical trial enrollment to death or to the date of last contact. Time-to-event endpoints were analyzed using the Kaplan-Meier method, and between-group comparison for OS was conducted using the log-rank test. Clinical efficacy of the individual peptides for OS was evaluated by univariate and multivariate analyses with the Cox proportional hazards regression model, and HR and 95% CI were calculated. All reported p-values were two-sided, and p-values less than 0.05 were considered significant. JMP version 12 or SAS version 9.4 software (SAS Institute Inc., Cary, N.C.) was used to perform all analyses.
Correlation levels of the 31 peptides for OS were evaluated by the Cox proportional hazards regression model.
Similarly, in the 2,085 advanced cancer patients (stage IV+recurrence) and the 503 non-advanced cancer patients (I-III stages) correlation levels of the 31 peptides for OS were evaluated by the Cox proportional hazards regression model. […]

[2] = Table 20, patients showing both <64% neutrophil and ≥26% lymphocyte
[3] = patients showing detectable levels
[4] = patients showing positive responses
[5] = Table 18, all 2,588 cases, vaccinated vs non-vaccinated
[6] = Table 18, all 2,588 cases, median OS of patients under PPV containing the peptide
[7] = Table 18, all 2,588 cases, median OS of patients under PPV not containing the peptide
[8] = Table 19, 2,085 advanced cancer patients (stage IV+recurrence)
[9] = Table 19, 2,085 advanced cancer patients (stage IV+recurrence), PPV containing the peptide
[10] = Table 19, 2,085 advanced cancer patients (stage IV+recurrence), PPV not containing the peptide
[11] = Table 21, patients showing both <64% neutrophil and ≥26% lymphocyte
[12] = Table 21, patients showing both <64% neutrophil and ≥26% lymphocyte, PPV containing the peptide
[13] = Table 21, patients showing both <64% neutrophil and ≥26% lymphocyte, PPV not containing the peptide
[14] = 2,085 advanced cancer patients (stage IV+recurrence)

## DVWSFGILL (listed as Homo sapiens) [Lck-422]
[1]; 2,588 patients, pre-vaccination
  positive rate of patients showing ≥10 FIU, pre-vaccination peptide-specific IgG: 12%
[1]; [2]
  Post vaccination IgG Median (FIU): 446 FIU
  Pre-vaccination IgG Median (FIU): 33 FIU
  Pre-vaccination IgG Negative (number of patients): 945
  Pre-vaccination IgG Positive (number of patients): 121
  Post vaccination IgG: number of (positive) patients among vaccinated: 33(10)
[1]
  Pre-vaccination IgG Negative patients: 2,272
  Pre-vaccination IgG Positive patients: 316
  Post vaccination IgG: (positive) patients: 92(20)
  Correlation between immune responses and OS: Negative (mOS): 11.7 months
  Correlation between immune responses and OS: Positive (mOS): 18.5 months
[1]; [3]
  Pre-vaccination IgG Median (FIU): 33 FIU
[1]; [4]
  Post vaccination IgG Median (FIU): 436 FIU
[1]; patients who completed at least the first cycle
  positive immune responses post-vaccination (positive of vaccinated cases): 20 of 92
Cancer patients; [5]
  HR: 1.2
Cancer patients; [6]
  Vaccinate cases (mOS): 92(12.0) M
Cancer patients; [7]
  Non-vaccinate cases (mOS): 1,849(11.4) M
Cancer patients; [8]
  HR: 1.1
Cancer patients; [9]
  Vaccinate cases (mOS): 83(11.7) M
Cancer patients; [10]
  Non-vaccinate cases (mOS): 1493(10.2) M
Cancer patients
  Correlation between immune responses and OS: Negative (mOS): 15.6 months
  Correlation between immune responses and OS: Positive (mOS): 18.8 months
Cancer patients; [11]
  HR: 1.1
Cancer patients; [12]
  Vaccinate cases (mOS): 33(15.6) M
Cancer patients; [13]
  Non-vaccinate cases (mOS): 775(17.5) M

## LYAWEPSFL (listed as Homo sapiens) [MRP3-503]
[1]; [2]
  Post vaccination IgG Median (FIU): 13,871 FIU
  Pre-vaccination IgG Median (FIU): 40 FIU
  Pre-vaccination IgG Negative (number of patients): 885
  Pre-vaccination IgG Positive (number of patients): 181
  Post vaccination IgG: number of (positive) patients among vaccinated: 61(46)
[1]
  Pre-vaccination IgG Negative patients: 2,121
  Pre-vaccination IgG Positive patients: 467
  Post vaccination IgG: (positive) patients: 133(85)
  Correlation between immune responses and OS: Negative (mOS): 9.3 months
  Correlation between immune responses and OS: Positive (mOS): 20.6 months
[1]; [3]
  Pre-vaccination IgG Median (FIU): 37 FIU
[1]; [4]
  Post vaccination IgG Median (FIU): 6,401 FIU
Cancer patients; [5]
  HR: 0.9
Cancer patients; [6]
  Vaccinate cases (mOS): 133(14.1) M
Cancer patients; [7]
  Non-vaccinate cases (mOS): 1,417(11.9) M
Cancer patients; [8]
  HR: 0.9
Cancer patients; [9]
  Vaccinate cases (mOS): 108(13.4) M
Cancer patients; [10]
  Non-vaccinate cases (mOS): 1138(10.4) M
Cancer patients
  Correlation between immune responses and OS: Negative (mOS): 12.6 months
  Correlation between immune responses and OS: Positive (mOS): 25.1 months
Cancer patients; [11]
  HR: 1.0
Cancer patients; [12]
  Vaccinate cases (mOS): 61(24.3) M
Cancer patients; [13]
  Non-vaccinate cases (mOS): 564(18.1) M

## HYTNASDGL (listed as Homo sapiens) [Lck-208]
[1]; [2]
  Post vaccination IgG Median (FIU): 9,551 FIU
  Pre-vaccination IgG Median (FIU): 31 FIU
  Pre-vaccination IgG Negative (number of patients): 839
  Pre-vaccination IgG Positive (number of patients): 227
  Post vaccination IgG: number of (positive) patients among vaccinated: 69(36)
[1]
  Pre-vaccination IgG Negative patients: 2,028
  Pre-vaccination IgG Positive patients: 560
  Post vaccination IgG: (positive) patients: 134(64)
  Correlation between immune responses and OS: Negative (mOS): 16.0 months
  Correlation between immune responses and OS: Positive (mOS): 30.5 months
[1]; [3]
  Pre-vaccination IgG Median (FIU): 30 FIU
[1]; [4]
  Post vaccination IgG Median (FIU): 4,597 FIU
Cancer patients; [14]
  median OS of non-vaccinated cases: 10 months
  median OS of vaccinated cases: 17.1 months
Cancer patients; [5]
  HR: 0.9
Cancer patients; [6]
  Vaccinate cases (mOS): 134(19.7) M
Cancer patients; [7]
  Non-vaccinate cases (mOS): 1,416(11.4) M
Cancer patients; [8]
  HR: 0.7
Cancer patients; [9]
  Vaccinate cases (mOS): 103(17.1) M
Cancer patients; [10]
  Non-vaccinate cases (mOS): 1143(10.0) M
Cancer patients
  Correlation between immune responses and OS: Negative (mOS): 19.9 months
  Correlation between immune responses and OS: Positive (mOS): 34 months
Cancer patients; [11]
  HR: 0.7
Cancer patients; [12]
  Vaccinate cases (mOS): 69(26.7) M
Cancer patients; [13]
  Non-vaccinate cases (mOS): 556(17.6) M

## DYLRSVLEDF (listed as Homo sapiens) [Lck-488]
[1]; [2]
  Post vaccination IgG Median (FIU): 11,894 FIU
  Pre-vaccination IgG Median (FIU): 60 FIU
  Pre-vaccination IgG Negative (number of patients): 192
  Pre-vaccination IgG Positive (number of patients): 874
  Post vaccination IgG: number of (positive) patients among vaccinated: 452(313)
[1]
  Pre-vaccination IgG Negative patients: 441
  Pre-vaccination IgG Positive patients: 2,147
  Post vaccination IgG: (positive) patients: 1103(635)
  Correlation between immune responses and OS: Negative (mOS): 7.8 months
  Correlation between immune responses and OS: Positive (mOS): 20.6 months
[1]; [3]
  Pre-vaccination IgG Median (FIU): 60 FIU
[1]; [4]
  Post vaccination IgG Median (FIU): 11,594 FIU
Cancer patients; [5]
  HR: 0.9
Cancer patients; [6]
  Vaccinate cases (mOS): 1,103(12.0) M
Cancer patients; [7]
  Non-vaccinate cases (mOS): 447(12.0) M
Cancer patients; [8]
  HR: 1.0
Cancer patients; [9]
  Vaccinate cases (mOS): 872(10.7) M
Cancer patients; [10]
  Non-vaccinate cases (mOS): 374(10.1) M
Cancer patients
  Correlation between immune responses and OS: Negative (mOS): 9.3 months
  Correlation between immune responses and OS: Positive (mOS): 24.7 months
Cancer patients; [11]
  HR: 1.0
Cancer patients; [12]
  Vaccinate cases (mOS): 452(17.9) M
Cancer patients; [13]
  Non-vaccinate cases (mOS): 173(19.7) M

## RYLTQETNKV (listed as Homo sapiens) [PTHrP-102]
[1]; [2]
  Post vaccination IgG Median (FIU): 5,336 FIU
  Pre-vaccination IgG Median (FIU): 27 FIU
  Pre-vaccination IgG Negative (number of patients): 710
  Pre-vaccination IgG Positive (number of patients): 356
  Post vaccination IgG: number of (positive) patients among vaccinated: 91(51)
[1]
  Pre-vaccination IgG Negative patients: 1,702
  Pre-vaccination IgG Positive patients: 886
  Post vaccination IgG: (positive) patients: 204(99)
  Correlation between immune responses and OS: Negative (mOS): 11.4 months
  Correlation between immune responses and OS: Positive (mOS): 20.0 months
[1]; [3]
  Pre-vaccination IgG Median (FIU): 27 FIU
[1]; [4]
  Post vaccination IgG Median (FIU): 1,423 FIU
Cancer patients; [5]
  HR: 0.9
Cancer patients; [6]
  Vaccinate cases (mOS): 204(13.3) M
Cancer patients; [7]
  Non-vaccinate cases (mOS): 1,346(11.9) M
Cancer patients; [8]
  HR: 0.9
Cancer patients; [9]
  Vaccinate cases (mOS): 168(11.8) M
Cancer patients; [10]
  Non-vaccinate cases (mOS): 1078(10.3) M
Cancer patients
  Correlation between immune responses and OS: Negative (mOS): 13.9 months
  Correlation between immune responses and OS: Positive (mOS): 39 months
Cancer patients; [11]
  HR: 0.9
Cancer patients; [12]
  Vaccinate cases (mOS): 91(21.2) M
Cancer patients; [13]
  Non-vaccinate cases (mOS): 534(18.0) M
